Experimental data published in US12377049B2, “Fulvestrant pharmaceutical composition, preparation method therefor, and application thereof” (SHANGHAI BOCIMED PHARMACEUTICAL CO., LTD., priority 2019, dated 2025).

Experiments:
[1] = background statement; cited from earlier work
[2] = Stability test on the fulvestrant suspensions of Examples 1-3: related substances (EP10.0 method); format: physicochemical; conditions: starting material
Procedure: The fulvestrant suspensions prepared in Examples 1 and 2 were stored in a refrigerator at 4° C. for 14 days or 10 days, and tested for related substances.
The fulvestrant suspension prepared in Example 3 was placed at −20° C., 4° C., 25° C., 40° C. or 60° C., and tested for related substances, the morphology, particle size distribution and crystalline form changes of the fulvestrant solid particles. The test for the related substances was performed according to the EP10.0 method.

[3] = background statement; cited from earlier work; remark: listed apart in the source

Main peak, peak area [2]: 99.84%
RRT 0.51, peak area [2]: 0.01%
RRT 0.88, peak area [2]: 0.05%
RRT 1.19, peak area [2]: 0.04%
RRT 2.92, peak area [2]: 0.03%
Total impurities, peak area [2]: 0.05%
SMILES: C[C@]12CC[C@@H]3c4ccc(O)cc4C[C@@H](CCCCCCCCC[S+]([O-])CCCC(F)(F)C(F)(F)F)[C@H]3[C@@H]1CC[C@@H]2O (some centres unmarked) [Fulvestrant, 7-(9-(4,4,5,5,5-pentafluoropentylsulfinyl)nonyl)estra-1,3,5(10)-triene-3,17-diol]
water solubility [1]: very low
oral bioavailability [3]: low
